Tests used:
Assay type in all cases: in vivo
[1] = test system: barnyardgrass (Echinochloa crus-galli); assay: Test A pre-/postemergence plant response; settings: for Barnyardgrass plant response rating: visual injury, 0 to 100 scale (0 no effect, 100 complete control), approx. ten days
Summary of the method: (§1)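 Pre: directed soil spray on seeded loam/sand blend. Post: same formulation (non-phytotoxic solvent + surfactant) on 2–10 cm plants, 1–2 leaf stage. Greenhouse ~10 d; visual injury score 0–100 vs untreated.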

[2] = test system: corn (Zea mays); assay: Test A pre-/postemergence plant response; settings: for Corn plant response rating: visual injury, 0 to 100 scale (0 no effect, 100 complete control), approx. ten days
Summary of the method: as §1

[3] = test system: giant foxtail (Setaria faberii); assay: Test A pre-/postemergence plant response; settings: for Foxtail, Giant plant response rating: visual injury, 0 to 100 scale (0 no effect, 100 complete control), approx. ten days
Summary of the method: as §1

[4] = test system: large crabgrass (Digitaria sanguinalis); assay: Test A pre-/postemergence plant response; settings: for Crabgrass, Large plant response rating: visual injury, 0 to 100 scale (0 no effect, 100 complete control), approx. ten days
Summary of the method: as §1

[5] = test system: morningglory (Ipomoea spp.); assay: Test A pre-/postemergence plant response; settings: for Morningglory plant response rating: visual injury, 0 to 100 scale (0 no effect, 100 complete control), approx. ten days
Summary of the method: as §1

[6] = test system: pigweed (Amaranthus retroflexus); assay: Test A pre-/postemergence plant response; settings: for Pigweed plant response rating: visual injury, 0 to 100 scale (0 no effect, 100 complete control), approx. ten days
Summary of the method: as §1

[7] = test system: velvetleaf (Abutilon theophrasti); assay: Test A pre-/postemergence plant response; settings: for Velvetleaf plant response rating: visual injury, 0 to 100 scale (0 no effect, 100 complete control), approx. ten days
Summary of the method: as §1

[8] = test system: wheat (Triticum aestivum); assay: Test A pre-/postemergence plant response; settings: for Wheat plant response rating: visual injury, 0 to 100 scale (0 no effect, 100 complete control), approx. ten days
Summary of the method: as §1

[9] = test system: barnyardgrass (Echinochloa crus-galli); assay: Test B flooded paddy test; settings: for Plant response rating, Flood, Barnyardgrass: 250 g ai/ha, flooded paddy test, visual rating on 0 to 100 scale (0 no effect, 100 complete control) after 13 to 15 days; for Plant response rating, Barnyardgrass: Flood (flooded paddy test), 13 to 15 days
Summary of the method: (§2)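 Greenhouse-held for 13 to 15 days, treated pots were compared visually with controls and scored 0–100 (0, no effect). Treatment had been made into paddy water kept at 3 cm above the soil, with plants at the 2-leaf stage.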

[10] = test system: ducksalad (Heteranthera limosa); assay: Test B flooded paddy test; settings: for Plant response rating, Flood, Ducksalad: 250 g ai/ha, flooded paddy test, visual rating on 0 to 100 scale (0 no effect, 100 complete control) after 13 to 15 days; for Plant response rating, Ducksalad: Flood (flooded paddy test), 13 to 15 days
Summary of the method: as §2

[11] = test system: rice (Oryza sativa); assay: Test B flooded paddy test; settings: for Plant response rating, Flood, Rice: 250 g ai/ha, flooded paddy test, visual rating on 0 to 100 scale (0 no effect, 100 complete control) after 13 to 15 days; for Plant response rating, Rice: Flood (flooded paddy test), 13 to 15 days
Summary of the method: as §2

[12] = test system: umbrella sedge (Cyperus difformis); assay: Test B flooded paddy test; settings: for Plant response rating, Flood, Sedge, Umbrella: 250 g ai/ha, flooded paddy test, visual rating on 0 to 100 scale (0 no effect, 100 complete control) after 13 to 15 days; for Plant response rating, Sedge, Umbrella: Flood (flooded paddy test), 13 to 15 days
Summary of the method: as §2

[13] = Postemergence, 125 g ai/ha, 0 to 100 scale where 0 is no effect and 100 is complete control
[14] = Preemergence, 125 g ai/ha, 0 to 100 scale, 0 = no effect, 100 = complete control
[15] = Preemergence, 500 g ai/ha, 0 to 100 scale, 0 = no effect, 100 = complete control
[16] = 62 g ai/ha, scale of 0 to 100 where 0 is no effect and 100 is complete control
[17] = 125 g ai/ha, scale 0 to 100, 0 is no effect, 100 is complete control
[18] = Flood, 31 g ai/ha, scale 0 to 100 (0 no effect, 100 complete control)

COCCn1c(-c2cccc(C)c2)ncc(C(=O)C2=C(O)C3CCC(C3)C2=O)c1=O (stereo not shown) [Compound 233]
Plant response rating, Barnyardgrass [1, 13]: 90 | Barnyardgrass plant response rating ([1]; Postemergence, 500 g ai/ha): 90 | Plant response rating, Barnyardgrass [1, 14]: 30 | Plant response rating, Barnyardgrass [1, 15]: 100 | Plant response rating, Corn [2, 13]: 60 | Corn plant response rating ([2]; Postemergence, 500 g ai/ha): 80 | Plant response rating, Corn [2, 14]: 0 | Plant response rating, Corn [2, 15]: 0 | Plant response rating, Foxtail, Giant [3, 13]: 90 | Foxtail, Giant plant response rating ([3]; Postemergence, 500 g ai/ha): 90 | Plant response rating, Foxtail, Giant [3, 14]: 20 | Plant response rating, Foxtail, Giant [3, 15]: 80 | Plant response rating, Crabgrass, Large [4, 13]: 90 | Crabgrass, Large plant response rating ([4]; Postemergence, 500 g ai/ha): 90 | Plant response rating, Crabgrass, Large [4, 14]: 40 | Plant response rating, Crabgrass, Large [4, 15]: 100 | Plant response rating, Morningglory [5, 13]: 100 | Morningglory plant response rating ([5]; Postemergence, 500 g ai/ha): 100 | Plant response rating, Morningglory [5, 14]: 50 | Plant response rating, Morningglory [5, 15]: 90 | Plant response rating, Pigweed [6, 13]: 100 | Pigweed plant response rating ([6]; Postemergence, 500 g ai/ha): 100 | Plant response rating, Pigweed [6, 14]: 70 | Plant response rating, Pigweed [6, 15]: 100 | Plant response rating, Velvetleaf [7, 13]: 100 | Velvetleaf plant response rating ([7]; Postemergence, 500 g ai/ha): 100 | Plant response rating, Velvetleaf [7, 14]: 60 | Plant response rating, Velvetleaf [7, 15]: 80 | Plant response rating, Wheat [8, 13]: 20 | Wheat plant response rating ([8]; Postemergence, 500 g ai/ha): 60 | Plant response rating, Wheat [8, 14]: 0 | Plant response rating, Wheat [8, 15]: 40 | Plant response rating, Flood, Barnyardgrass [9]: 65 | Plant response rating, Barnyardgrass [9, 16]: 20 | Plant response rating, Flood, Ducksalad [10]: 100 | Plant response rating, Ducksalad [10, 16]: 100 | Plant response rating, Flood, Rice [11]: 50 | Plant response rating, Rice [11, 16]: 25 | Plant response rating, Flood, Sedge, Umbrella [12]: 85 | Plant response rating, Sedge, Umbrella [12, 16]: 70

COCCn1c(-c2cccc(F)c2)ncc(C(=O)C2=C(O)C3CCC(C3)C2=O)c1=O (stereo not shown) [Compound 235]
Plant response rating, Barnyardgrass [1, 13]: 90 | Barnyardgrass plant response rating ([1]; Postemergence, 500 g ai/ha): 100 | Plant response rating, Barnyardgrass [1, 14]: 90 | Plant response rating, Barnyardgrass [1, 15]: 100 | Plant response rating, Corn [2, 13]: 80 | Corn plant response rating ([2]; Postemergence, 500 g ai/ha): 90 | Plant response rating, Corn [2, 14]: 20 | Plant response rating, Corn [2, 15]: 70 | Plant response rating, Foxtail, Giant [3, 13]: 90 | Foxtail, Giant plant response rating ([3]; Postemergence, 500 g ai/ha): 100 | Plant response rating, Foxtail, Giant [3, 14]: 70 | Plant response rating, Foxtail, Giant [3, 15]: 90 | Plant response rating, Crabgrass, Large [4, 13]: 100 | Crabgrass, Large plant response rating ([4]; Postemergence, 500 g ai/ha): 100 | Plant response rating, Crabgrass, Large [4, 14]: 100 | Plant response rating, Crabgrass, Large [4, 15]: 100 | Plant response rating, Morningglory [5, 13]: 100 | Morningglory plant response rating ([5]; Postemergence, 500 g ai/ha): 100 | Plant response rating, Morningglory [5, 14]: 80 | Plant response rating, Morningglory [5, 15]: 90 | Plant response rating, Pigweed [6, 13]: 100 | Pigweed plant response rating ([6]; Postemergence, 500 g ai/ha): 100 | Plant response rating, Pigweed [6, 14]: 90 | Plant response rating, Pigweed [6, 15]: 90 | Plant response rating, Velvetleaf [7, 13]: 100 | Velvetleaf plant response rating ([7]; Postemergence, 500 g ai/ha): 100 | Plant response rating, Velvetleaf [7, 14]: 100 | Plant response rating, Velvetleaf [7, 15]: 100 | Plant response rating, Wheat [8, 13]: 50 | Wheat plant response rating ([8]; Postemergence, 500 g ai/ha): 80 | Plant response rating, Wheat [8, 14]: 10 | Plant response rating, Wheat [8, 15]: 40 | Plant response rating, Flood, Barnyardgrass [9]: 75 | Plant response rating, Barnyardgrass [9, 16]: 20 | Plant response rating, Barnyardgrass [9, 17]: 50 | Barnyardgrass plant response rating [9, 18]: 0 | Plant response rating, Flood, Ducksalad [10]: 100 | Plant response rating, Ducksalad [10, 16]: 95 | Plant response rating, Ducksalad [10, 17]: 100 | Ducksalad plant response rating [10, 18]: 95 | Plant response rating, Flood, Rice [11]: 55 | Plant response rating, Rice [11, 16]: 0 | Plant response rating, Rice [11, 17]: 45 | Rice plant response rating [11, 18]: 0 | Plant response rating, Flood, Sedge, Umbrella [12]: 80 | Plant response rating, Sedge, Umbrella [12, 16]: 70 | Plant response rating, Sedge, Umbrella [12, 17]: 80 | Sedge, Umbrella plant response rating [12, 18]: 0

— patent US8952024B2, “Herbicidal pyrimidone derivatives” (E I du Pont de Nemours and Company, priority 2009, dated 2015)
